The test system of one data set is DENV-2 16681 strain. The data set is described as follows: DENV-2 antiviral assay (eGFP-labeled virus in Vero cells). It is filed as cell-based, Dengue virus. The conditions noted are these: DENV-2 16681 eGFP, MOI 0.5, 3 days. The method in brief: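 Vero cells (2500/well) pre-plated with compound (9-step 5-fold series), infected next day with eGFP-labeled DENV-2 16681 at MOI 0.5 in MEM with 2% FCS; 3 days at 37° C. eGFP fluorescence read at 488 nm; inhibition versus virus and cell controls, EC50 by linear interpolation.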

Data set [1] in a line: Toxicity on the same plates (ATPlite cell viability). As to conditions: African green monkey, CC50, Vero cells, same plates as DENV-2 antiviral assay. (In general: Cellular ATP, detected with luciferase, serves as a proxy for viable cell number.)
The subject of the next data set is DENV-2. The conditions noted are these: analogous DENV-2 antiviral assay, reported activity; cited from earlier work.
The conditions of data set [2]: analogous DENV-2 antiviral assay, reported activity; cited from earlier work.
For another data set, the system named is DENV-1 strain TC974 #666. The data set can be described thus: Tetravalent RT-qPCR assay, serotype 1. As to conditions: Dengue virus, DENV1, 72 h; RT-qPCR serotype 1 TC974#666, Protocol A, Vero cells, day 3. It is filed as cell-based. Here is the method: (§1) The antiviral activity of the compounds of the invention was tested against DENV-1 strain TC974 #666 (NCPV), DENV-2 strain 16681, DENV-3 strain H87 (NCPV) and DENV-4 strain H241 (NCPV) in a RT-qPCR assay. Therefore, Vero cells were infected with either DENV-1, or -2, or -3, or -4 in the presence or absence of test compounds. At day 3 post-infection, the cells were lysed and cell lysates were used to prepare cDNA of both a viral target (the 3′UTR of DENV; Table 2) and cellular reference gene (β-actin, Table 2). Subsequently, a duplex real time PCR was performed on a Lightcycler480 instrument. The generated Cp value is inversely proportional to the amount of RNA expression of these targets. Inhibition of DENV replication by a test compound results in a shift of Cp's for the 3′UTR gene. On the other hand, if a test compound is toxic to the cells, a similar effect on β-actin expression will be observed. The comparative ΔΔCp method is used to calculate EC50, which is based on the relative gene expression of the target gene (3′UTR) normalized with the cellular housekeeping gene (β-actin). In addition, CC50 values are determined based on the Cp values acquired for the housekeeping gene β-actin.
(§2) The culture medium consisted of minimal essential medium supplemented with 2% of heat-inactivated fetal calf serum, 0.04% gentamycin (50 mg/mL) and 2 mM of L-glutamine. Vero cells, obtained from ECACC, were suspended in culture medium and 75 μL/well was added in 96-well plates (10000 cells/well), which already contain the antiviral compounds. […] In addition, each plate contains wells which are assigned as virus controls (containing cells and virus in the absence of compound) and cell controls (containing cells in the absence of virus and compound). Once the cells were added in the plates, the plates were incubated in a fully humidified incubator (37° C., 5% CO2) until the next day. Dengue viruses serotype-1, 2, 3 and 4 were diluted in order to obtain a Cp of ˜22-24 in the assay. Therefore, 25 μL of virus suspension was added to all the wells containing test compound and to the wells assigned as virus control. In parallel, 25 μL of culture medium was added to the cell controls. Next, the plates were incubated for 3 days in a fully humidified incubator (37° C., 5% CO2). After 3 days, the supernatant was removed from the wells and the cells were washed twice with ice-cold PBS (˜100 μL). The cell pellets within the 96-well plates were stored at −80° C. for at least 1 day. Next, RNA was extracted using the Cells-to-CT™ lysis kit, according to the manufacturer's guideline (Life Technologies). The cell lysates can be stored at −80° C. or immediately used in the reverse transcription step.
(§3) In preparation of the reverse transcription step, mix A (table 3A) was prepared and 7.57 μL/well was dispensed in a 96-well plate. After addition of 5 μL of the cell lysates, a five minute denaturation step at 75° C. was performed (table 3B). Afterwards, 7.43 μL of mix B was added (table 3C) and the reverse transcription step was initiated (table 3D) to generate cDNA.
(§4) Finally, a RT-qPCR mix was prepared, mix C (table 4A), and 22.02 μL/well was dispensed in 96-well LightCycler qPCR plates to which 3 μL of cDNA was added and the qPCR was performed according to the conditions in table 4B on a LightCycler 480.
(§5) Using the LightCycler software and an in-house LIMS system, dose response curves for each compound were calculated and the half maximal effective concentration (EC50) and the half maximal cytotoxic concentration (CC50) were determined (Tables 5-8).

The test system of another data set is DENV-2 strain 16681. The data set can be described thus: Tetravalent RT-qPCR assay, serotype 2. In kind it is cell-based. As to conditions: Dengue virus, DENV2, 72 h; RT-qPCR serotype 2 16681, Protocol A, Vero cells, day 3. As to the method:
as §1, §2, §3, §4, §5
For orientation: Quantitative PCR measures a nucleic acid by following its amplification.

The next data set deals with DENV-3 strain H87. The data set is described as follows: Tetravalent RT-qPCR assay, serotype 3. In kind it is cell-based. As to conditions: Dengue virus, DENV3, 72 h; RT-qPCR serotype 3 H87, Protocol A, Vero cells, day 3. As to the method: as §1, §2, §3, §4, §5
The next data set concerns DENV-4 strain H241. The data set can be described thus: Tetravalent RT-qPCR assay, serotype 4. It is filed as cell-based. As to conditions: Dengue virus, DENV4, 72 h; RT-qPCR serotype 4 H241, Protocol A, Vero cells, day 3. As to the method: as §1, §2, §3, §4, §5
A short description of data set [3]: Cytotoxicity in RT-qPCR assay (Cp of housekeeping gene β-actin). In kind it is cell-based. The conditions noted are these: African green monkey. Here is the method:
as §1, §2, §5

[4] abbreviates: Dengue virus, DENV2, Vero, 72 h.
Setting [5] is: RT-qPCR serotype 1 TC974#666, Protocol A.
Where [6] appears, read: RT-qPCR serotype 2 16681, Protocol A.
Setting [7] is: RT-qPCR serotype 3 H87, Protocol A.
[8] abbreviates: RT-qPCR serotype 4 H241, Protocol A.

This is an account of results in patent publication US10646469B2, “Substituted indole derivatives as dengue viral replication inhibitors” (Janssen Pharmaceuticals, Inc., priority 2016, dated 2020).

Where two headings read alike, the source gives them in different places. Some results are limits rather than exact numbers.

By EC50 is commonly meant the midpoint of the concentration-response curve. In general, melting point refers to the temperature of the solid-liquid transition.

As to `COc1cc(NC(C(=O)c2c[nH]c3ccc(C(F)(F)F)cc23)c2ccc(F)cc2OC)cc(OCCO)c1` (racemic) [Compound 1, 2-(4-fluoro-2-methoxyphenyl)-2-((3-(2-hydroxyethoxy)-5-methoxyphenyl)amino)-1-(5-(trifluoromethyl)-1H-indol-3-yl)ethanone], the melting point was 132 °C. Moreover, a half-maximal effect with DENV-2 16681 strain (setting [4]) (EC50) was put at 1.2 nM. In addition, the CC50 in data set [1] was 5500 nM.

The molecule `COc1cc(NC(C(=O)c2c[nH]c3cc(OC)c(OC(F)(F)F)cc23)c2ccc(F)cc2OC)cc(OCCO)c1` (racemic) [Compound 6, 2-(4-fluoro-2-methoxyphenyl)-2-((3-(2-hydroxyethoxy)-5-methoxyphenyl)amino)-1-(6-methoxy-5-(trifluoromethoxy)-1H-indol-3-yl)ethanone] displayed a melting point of 178 °C. In addition, in the data set on DENV-2 16681 strain (setting [4]), the EC50 came out at 0.84 nM. The molecule further displayed a CC50 in data set [1] of 3600 nM.

Turning to `COc1cc(NC(C(=O)c2c[nH]c3ccccc23)c2ccc(F)cc2)cc(OCCO)c1` (centres unmarked) [(350) of WO-2013/045516], the EC50 with DENV-2 is 10 nM. Further, the CC50 in [2] is 46000 nM.

As to `COc1cc(NC(C(=O)c2c[nH]c3cc(F)c(C(F)(F)F)cc23)c2ccc(Cl)cc2OC)cc(OCCO)c1` (single isomer, unassigned) [Compound 11A, 2-(4-chloro-2-methoxyphenyl)-1-(6-fluoro-5-(trifluoromethyl)-1H-indol-3-yl)-2-((3-(2-hydroxyethoxy)-5-methoxyphenyl)amino)ethanone], the EC50 with DENV-2 16681 strain is 0.33 nM; in the data set with DENV-1 strain TC974 #666, 0.69 nM; with DENV-2 strain 16681 it was 0.24 nM; in the data set on DENV-3 strain H87 it was 5.7 nM; in the data set on DENV-4 strain H241, 39 nM. Moreover, the CC50 at 3 days in data set [3] (setting [5]) is over 2500 nM; in data set [3] (setting [6]), over 2500 nM; in data set [3] (setting [7]), over 2500 nM; in data set [3] (setting [8]), 1900 nM. The molecule also showed a CC50 in data set [1] of 2500 nM.

In the case of `COc1cc(NC(C(=O)c2c[nH]c3cc(OC)c(C(F)(F)F)cc23)c2ccc(F)cc2OC)cc(OCCO)c1` (single isomer, unassigned) [Compound 2A, 2-(4-fluoro-2-methoxyphenyl)-2-((3-(2-hydroxyethoxy)-5-methoxyphenyl)amino)-1-(6-methoxy-5-(trifluoromethyl)-1H-indol-3-yl)ethanone], the EC50 turned out to be 0.45 nM with DENV-2 16681 strain; 2.2 nM in the data set on DENV-1 strain TC974 #666; 0.25 nM with DENV-2 strain 16681; 19 nM with DENV-3 strain H87; 62 nM with DENV-4 strain H241. Besides, the CC50 at 3 days in data set [3] (setting [5]) was over 2500 nM; in data set [3] (setting [6]), 3200 nM; in [3] (setting [7]) it was over 1900 nM; in [3] (setting [8]) it was over 2100 nM. Also, the CC50 in data set [1] came out at 3500 nM.

Consider `COc1cc(NC(C(=O)c2c[nH]c3cc(OC)c(C(F)(F)F)cc23)c2ccc(F)cc2OC)cc(OCCO)c1` (racemic) [Compound 2, 2-(4-fluoro-2-methoxyphenyl)-2-((3-(2-hydroxyethoxy)-5-methoxyphenyl)amino)-1-(6-methoxy-5-(trifluoromethyl)-1H-indol-3-yl)ethanone], for which the melting point worked out at 174 °C. The same molecule gave an EC50 in the data set with DENV-2 16681 strain (setting [4]) of 0.71 nM. The same molecule displayed a CC50 in [1] of 4800 nM.

For `COc1cc(NC(C(=O)c2c[nH]c3c(C)cc(OC(F)(F)F)cc23)c2ccc(Cl)cc2OC)cc(OCCO)c1` (single isomer, unassigned) [Compound 16A, 2-(4-chloro-2-methoxyphenyl)-2-((3-(2-hydroxyethoxy)-5-methoxyphenyl)amino)-1-(7-methyl-5-(trifluoromethoxy)-1H-indol-3-yl)ethanone], the EC50 is 0.098 nM with DENV-2 16681 strain; 0.63 nM in the data set on DENV-1 strain TC974 #666; 0.15 nM in the data set on DENV-2 strain 16681; 1.7 nM in the data set with DENV-3 strain H87; 17 nM with DENV-4 strain H241. Moreover, the CC50 at 3 days in data set [3] (setting [5]) was over 2500 nM; in data set [3] (setting [6]), over 2500 nM; in data set [3] (setting [7]), over 2500 nM; in [3] (setting [8]) it was over 2000 nM. In data set [1], this molecule returned a CC50 of 2400 nM.

Regarding `COc1cc(NC(C(=O)c2c[nH]c3c(C)cc(OC(F)(F)F)cc23)c2ccc(Cl)cc2OC)cc(OCCO)c1` (racemic) [Compound 16, 2-(4-chloro-2-methoxyphenyl)-2-((3-(2-hydroxyethoxy)-5-methoxyphenyl)amino)-1-(7-methyl-5-(trifluoromethoxy)-1H-indol-3-yl)ethanone], the melting point amounted to 105 °C. In addition, in the data set on DENV-2 16681 strain (setting [4]), the EC50 amounted to 0.19 nM. Further, in data set [1], the CC50 worked out at 2500 nM.
